Measured values reported in PMC8462099 (Molecular cell, 2021).

Assays:
[1] = target: T1, AMPKγ1 (Homo sapiens, UniProt P54619); test: [3H]AMP binding to GST fusion protein
[2] = target: T1, AMPKγ1; test: [3H]inositol saturation binding

T1 sequence (P54619 whole entry, the tested form may be a part): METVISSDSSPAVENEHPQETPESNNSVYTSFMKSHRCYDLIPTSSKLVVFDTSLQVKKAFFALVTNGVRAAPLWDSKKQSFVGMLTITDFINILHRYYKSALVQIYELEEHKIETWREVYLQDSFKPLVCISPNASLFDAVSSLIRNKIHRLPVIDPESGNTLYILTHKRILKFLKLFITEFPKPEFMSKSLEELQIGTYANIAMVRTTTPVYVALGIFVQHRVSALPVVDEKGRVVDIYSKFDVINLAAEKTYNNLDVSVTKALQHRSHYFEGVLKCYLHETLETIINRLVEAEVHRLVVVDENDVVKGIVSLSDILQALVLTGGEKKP

**Q.** For `Nc1ncnc2c1ncn2[C@@H]1O[C@H](COP(=O)(O)O)[C@@H](O)[C@H]1O` [AMP], which IC50 [1] is on record?
**A.** 1900 nM

**Q.** Which Kd [2] does the source give for `O[C@H]1[C@H](O)[C@@H](O)[C@H](O)[C@@H](O)[C@H]1O` [Ins, inositol] here?
**A.** 98.2 pmol
